Data: PubChem BioAssay AID330 (DTP/NCI, 2004)
Values joined by “and” are separate entries in the source; they are usually repeats but may differ in a detail not shown here. Equal entries are not always repeated. Toxic doses and inconclusive results are not listed. Rule for the calls: active = survival T/C of 150% or more; inactive = T/C below 125% in these data.

Tested on: P388 leukemia ip, CD2F1 mice, survival T/C
Test: NCI In Vivo Anticancer Drug Screen. Data for tumor model P388 Leukemia (intraperitoneal) in CD2F1 (CDF1) mice
Settings: endpoint: median survival time, higher = longer survival
Procedure: The antitumor activity of compounds was measured in mice bearing transplantable tumors. Survival or tumor size were measured and the results are expressed as the measurement made in the treated group (T) divided by the measurement made in the vehicle treated control group (C). The tumor model used in this assay is P388 Leukemia (intraperitoneal) in CD2F1 (CDF1) mice

[1] = dose: 50.0 mg/kg/injection, schedule: Q04DX003 (ip), vehicle: saline
[2] = dose: 100.0 mg/kg/injection, schedule: Q04DX003 (ip), vehicle: saline
[3] = dose: 200.0 mg/kg/injection, schedule: Q04DX003 (ip), vehicle: saline
[4] = dose: 60.0 mg/kg/injection, schedule: Q01DX005 (ip), vehicle: saline with Tween-80
[5] = dose: 120.0 mg/kg/injection, schedule: Q01DX005 (ip), vehicle: saline with Tween-80
[6] = dose: 240.0 mg/kg/injection, schedule: Q01DX005 (ip), vehicle: saline with Tween-80
[7] = dose: 60.0 mg/kg/injection, schedule: Q01DX005 (ip), vehicle: Klucel (hydroxypropylcellulose) (HPC)
[8] = dose: 120.0 mg/kg/injection, schedule: Q01DX005 (ip), vehicle: Klucel (hydroxypropylcellulose) (HPC)
[9] = dose: 240.0 mg/kg/injection, schedule: Q01DX005 (ip), vehicle: Klucel (hydroxypropylcellulose) (HPC)
[10] = dose: 50.0 mg/kg/injection, schedule: Q01DX005 (ip), vehicle: Klucel (hydroxypropylcellulose) (HPC)
[11] = dose: 100.0 mg/kg/injection, schedule: Q01DX005 (ip), vehicle: Klucel (hydroxypropylcellulose) (HPC)
[12] = dose: 200.0 mg/kg/injection, schedule: Q01DX005 (ip), vehicle: Klucel (hydroxypropylcellulose) (HPC)
[13] = dose: 25.0 mg/kg/injection, schedule: Q01DX009 (ip), vehicle: saline
[14] = dose: 50.0 mg/kg/injection, schedule: Q01DX009 (ip), vehicle: saline
[15] = dose: 25.0 mg/kg/injection, schedule: Q01DX009 (ip), vehicle: saline with Tween-80
[16] = dose: 50.0 mg/kg/injection, schedule: Q01DX009 (ip), vehicle: saline with Tween-80
[17] = dose: 100.0 mg/kg/injection, schedule: Q01DX009 (ip), vehicle: saline with Tween-80
[18] = dose: 100.0 mg/kg/injection, schedule: Q01DX009 (ip), vehicle: saline
[19] = dose: 200.0 mg/kg/injection, schedule: Q01DX009 (ip), vehicle: saline with Tween-80
[20] = dose: 25.0 mg/kg/injection, schedule: Q04DX003 (ip), vehicle: saline with Tween-80
[21] = dose: 50.0 mg/kg/injection, schedule: Q04DX003 (ip), vehicle: saline with Tween-80
[22] = dose: 100.0 mg/kg/injection, schedule: Q04DX003 (ip), vehicle: saline with Tween-80
[23] = dose: 50.0 mg/kg/injection, schedule: Q01DX005 (ip), vehicle: saline with Tween-80
[24] = dose: 100.0 mg/kg/injection, schedule: Q01DX005 (ip), vehicle: saline with Tween-80
[25] = dose: 400.0 mg/kg/injection, schedule: Q04DX003 (ip), vehicle: saline

Measured: T/C

FC(F)(F)c1nc2nccnc2[nH]1
inactive: [1] 100 % of control | [2] 100 % of control | [3] 100 % of control

Cc1nn2c(-c3snnc3C)nnc2s1
inactive: dose: 100.0 mg/kg/injection, schedule: Q01DX001 (ip), vehicle: Klucel (hydroxypropylcellulose) (HPC) 99 % of control | dose: 200.0 mg/kg/injection, schedule: Q01DX001 (ip), vehicle: Klucel (hydroxypropylcellulose) (HPC) 100 % of control | dose: 400.0 mg/kg/injection, schedule: Q01DX001 (ip), vehicle: Klucel (hydroxypropylcellulose) (HPC) 100 % of control

CC1CCC2C(C)(C)C3CC12CC1OC13C (configuration not stated)
inactive: [4] 100 % of control | [5] 91 % of control | [6] 96 % of control

NC(=O)c1cc2c3ccccc3ncc2c2ccccc12
inactive: dose: 100.0 mg/kg/injection, schedule: Q01DX001 (ip), vehicle: saline with Tween-80 100 % of control | dose: 200.0 mg/kg/injection, schedule: Q01DX001 (ip), vehicle: saline with Tween-80 100 % of control | dose: 400.0 mg/kg/injection, schedule: Q01DX001 (ip), vehicle: saline with Tween-80 100 % of control

COC(=O)N1Cc2cc3ccccc3nc2C1C (configuration not stated)
inactive: [7] 101 % of control | [8] 104 % of control | [9] 109 % of control

Cc1ccc(N=Nc2c(-c3cccs3)nn(C(=S)S)c2C(F)(F)F)cc1
inactive: [10] 92 % of control | [11] 92 % of control | [12] 87 % of control

CCCCCCCCCCCCCCNC(=O)C[N+](C)(C)Cc1ccccc1
inactive: dose: 0.25 mg/kg/injection, schedule: Q01DX009 (ip), vehicle: saline with Tween-80 100 % of control | dose: 0.5 mg/kg/injection, schedule: Q01DX009 (ip), vehicle: saline with Tween-80 100 % of control | dose: 1.0 mg/kg/injection, schedule: Q01DX009 (ip), vehicle: saline with Tween-80 100 % of control

CCOC(=O)/C(C#N)=N/O
inactive: dose: 6.25 mg/kg/injection, schedule: Q01DX009 (ip), vehicle: saline 104 % of control and 114 % of control and 90 % of control | dose: 12.5 mg/kg/injection, schedule: Q01DX009 (ip), vehicle: saline 102 % of control and 104 % of control and 95 % of control | [13] 111 % of control and 97 % of control | [14] 101 % of control and 104 % of control and 107 % of control

CCCCOCN(COCCCC)c1ccccn1
inactive: [15] 103 % of control | [16] 100 % of control | [14] 111 % of control | [17] 116 % of control | [18] 122 % of control | [19] 116 % of control | dose: 200.0 mg/kg/injection, schedule: Q01DX009 (ip), vehicle: saline 117 % of control

Clc1nnc(-c2ccccc2)c(-c2ccccc2)n1
inactive: [15] 100 % of control | [16] 100 % of control | [17] 100 % of control

CCC(c1ccc2cc(OC)ccc2c1)C(C)(C)C(=O)F (configuration not stated)
inactive: [20] 104 % of control | dose: 33.0 mg/kg/injection, schedule: Q01DX009 (ip), vehicle: saline with Tween-80 104 % of control | [16] 104 % of control | [21] 104 % of control | dose: 75.0 mg/kg/injection, schedule: Q01DX009 (ip), vehicle: saline with Tween-80 122 % of control | [22] 87 % of control

O=C(CCCl)Nc1cccc(CCC(=O)c2ccccc2NC(=O)CCCl)c1
inactive: [4] 89 % of control | [5] 93 % of control | [6] 88 % of control

COC1=CC(C(=O)O)C=C(OC)C1
inactive: [23] 102 % of control | [24] 104 % of control | dose: 200.0 mg/kg/injection, schedule: Q01DX005 (ip), vehicle: saline with Tween-80 89 % of control

NNC(=O)C1CC2c3ccccc3C1c1ccccc12 (configuration not stated)
inactive: [4] 101 % of control | [5] 99 % of control | [6] 97 % of control

CN(C)c1ncnc2c1ncn2[C@H]1CCC[C@@H]1O
inactive: dose: 0.37 mg/kg/injection, schedule: Q01DX005 (ip), vehicle: Klucel (hydroxypropylcellulose) (HPC) 109 % of control | dose: 0.75 mg/kg/injection, schedule: Q01DX005 (ip), vehicle: Klucel (hydroxypropylcellulose) (HPC) 110 % of control | dose: 1.5 mg/kg/injection, schedule: Q01DX005 (ip), vehicle: Klucel (hydroxypropylcellulose) (HPC) 112 % of control and 116 % of control

CCCCCCCCCSc1nc2ccc(NC(=O)/C=C/C(=O)O)cc2s1
inactive: dose: 12.5 mg/kg/injection, schedule: Q01DX009 (ip), vehicle: Klucel (hydroxypropylcellulose) (HPC) 97 % of control | dose: 25.0 mg/kg/injection, schedule: Q01DX009 (ip), vehicle: Klucel (hydroxypropylcellulose) (HPC) 107 % of control | dose: 50.0 mg/kg/injection, schedule: Q01DX009 (ip), vehicle: Klucel (hydroxypropylcellulose) (HPC) 106 % of control and 107 % of control | dose: 100.0 mg/kg/injection, schedule: Q01DX009 (ip), vehicle: Klucel (hydroxypropylcellulose) (HPC) 113 % of control

Nc1nc2c(ncn2C2OC(CO)C(O)C2N)c(=O)[nH]1 (configuration not stated)
inactive: [15] 106 % of control and 97 % of control | [20] 103 % of control | dose: 25.0 mg/kg/injection, schedule: Q04DX003 (ip), vehicle: saline 101 % of control | [16] 100 % of control and 107 % of control | [21] 96 % of control | [1] 104 % of control | [17] 106 % of control | [22] 101 % of control | [2] 100 % of control and 105 % of control | [19] 100 % of control | dose: 200.0 mg/kg/injection, schedule: Q04DX003 (ip), vehicle: saline with Tween-80 104 % of control | [3] 98 % of control and 108 % of control | dose: 400.0 mg/kg/injection, schedule: Q04DX003 (ip), vehicle: saline with Tween-80 101 % of control | [25] 105 % of control and 107 % of control

Cc1ccc(C(C(C)[N+](=O)[O-])C(C(=O)c2ccccc2)S(=O)(=O)c2ccccc2)cc1 (configuration not stated)
inactive: [10] 93 % of control | [11] 106 % of control and 91 % of control | [12] 106 % of control and 89 % of control

NC(=O)/C(N=Nc1ccccc1S(=O)(=O)O)=N/Nc1ccccc1S(=O)(=O)O
inactive: [10] 100 % of control | [11] 101 % of control and 92 % of control | [12] 101 % of control and 94 % of control

COc1ccc(C(=O)C(=O)c2ccc(OC)cc2)cc1
inactive: [7] 99 % of control | [8] 98 % of control | [9] 100 % of control

CC1(C)NN=C2C(=CC=C3NNC(C)(C)N32)n2cccc21
inactive: [23] 104 % of control | [24] 106 % of control

C[C@]12C=CC(=O)C=C1CC[C@@H]1[C@@H]2[C@@H](O)C[C@@]2(C)[C@H]1CC[C@]2(O)C(=O)CF
inactive: dose: 6.25 mg/kg/injection, schedule: Q01DX009 (ip), vehicle: suspension in saline 100 % of control | dose: 12.5 mg/kg/injection, schedule: Q01DX009 (ip), vehicle: suspension in saline 93 % of control | dose: 25.0 mg/kg/injection, schedule: Q01DX009 (ip), vehicle: suspension in saline 102 % of control | dose: 50.0 mg/kg/injection, schedule: Q01DX009 (ip), vehicle: suspension in saline 96 % of control

CC(C)(C)N(N)Cc1ccccc1
inactive: [13] 99 % of control | [14] 104 % of control | [18] 104 % of control

CC1(C(F)(F)F)CC(=O)NN1 (configuration not stated)
inactive: [13] 104 % of control | [14] 118 % of control

O=C(NC(Cc1ccccc1)C(=O)O)OCc1ccccc1 (configuration not stated) (tested in a mixture with another compound)
inactive: dose: 6.25 mg/kg/injection, schedule: Q01DX005 (ip), vehicle: Klucel (hydroxypropylcellulose) (HPC) 109 % of control | dose: 12.5 mg/kg/injection, schedule: Q01DX005 (ip), vehicle: Klucel (hydroxypropylcellulose) (HPC) 106 % of control | dose: 25.0 mg/kg/injection, schedule: Q01DX005 (ip), vehicle: Klucel (hydroxypropylcellulose) (HPC) 94 % of control

Brc1ccc(N=Cc2cccs2)cc1
inactive: [2] 100 % of control | [3] 99 % of control | [25] 98 % of control
